Assay results taken from patent EP0362382A1, “METHOD OF STERILIZING PLANT POLLEN” (VSESOJUZNY NAUCHNO-ISSLEDOVATELSKY INST. SELSKOKHOZYAISTV. …, priority 1988, dated 1989).

Key:
Assay type in all cases: in vivo
Hirse = test: Field test of gametocidal activity (sterilisation of anthers), millet; settings: V. Periode der Organogenese, 1%ige wäßrige Emulsion
Excerpt: (§1) Die gametozide Aktivitat der erfindungsgemäßen Sterilisationsmittel war im Feldversuch in verschiedenen bodenklimatischen Zonen mit Teilstücken von 10 m^2 Größe in drei- bis viermaliger Wiederholung festgestellt. Jedes Sterilisationsmittel wurde mindenstens 5 Jahre lang geprüft.
(§2) Die Entwicklung der Perioden der Organogenese wird zytologisch überwacht. Die Behandlung von Pflanzen mit dem Sterilisationsmittel erfolgt am Anfang der fünften Periode der Organogenese nach Kupermann.
(§3) Mit dem Ährenschieben verwirklicht man die Isolierung von Hauptähren und anderen Stockwerken in Pergamentbeuteln. Bei Weizen und Tritikale werden Einzelisolatoren benutzt. Bei Roggen schließt man je Ähre 5 bis 7 verschiedene nebeneinander befindliche Pflanzen unter einen gemeinsamen Isolator ein. Bei Hierse wird jede Rispe getrennt isoliert. Der Sterilitätsprozentsatz (X) für Weizen, Roggen, Tritikale und Hirse wird nach der Formel [formula] ermittelt.
(§4) Die Kornzahl in nicht isolierten Ähren von Kontrollpflanzen wird bedingt für 100 % Ansetzen bei freier Bestäubung angenommen.
(§5) Um zuverlässige Angaben zu erhalten, verwendet man 20 bis 25 Isolatoren jeder Wiederholung für Weizen und Tritikale, 10 .bis 15 Isolatoren jeder Wiederholung für Roggen und Hirse.
Pflanzen der Hirse Sorte Mironowskoe 94 werden in der V. Periode der Organogenese (nach Kupermann) mit 1%iger wäßriger Emulsion von 4-Karboxybutyldezylsulfid, δ, δ' -Sulfonyldivaleriansäure, Bis(2-äthylhexyläther) der δ, δ' -Thiodivaleriansäure behandelt. Die Emulsion enthält 0,1 Masse% Kalziumalkylbenzolsulfonat mit 12 bis 14 Kohlenstoffatomen und 0,01 Masse% Dodezylsulfat. Der Verbrauch an Präparat beträgt 10 kg/ha. Als Kontrolle dienen Pflanzen, behandelt mit einem Verdünner ohne Sterilieationsmittel. Die Prüfergebnisse sind in der Tabelle 14 angegeben. […] Periode der Organogenese erhalten.
Pflanzen der Hirse Sorte K9009, Poltawskaja oblast (Poltawaer Gebiet) werden in der V.Periode der Organogenese (nach Kupermann) mit 1%iger wäßriger Emulsion von δ, δ' Thiodivaleriansäure, Natriumsälz der δ, δ'- -Thiodivaleriansäure, δ, δ' -Sulfonyldivaleriansäure, Bis([…]) der d, δ' -Thiodivaleriansäure, 4-Karboxybutyldezylsulfid behandelt. Die Emulsion enthält 0,1 Masse% Kalziumalkylbenzolsulfonat mit 12 bis 14 Kohlenstoffatomen und 0,01 Masse% Tetrahydrofuran, Der Verbrauch an Präparat beträgt 6 kg/ha. Als Kontrolle dienen . Pflanzen, behandelt mit einem Verdünner ohne Sterilisationsmittel. Die Prüfergebnisse sind in der Tabelle 15 angegeben. […] Periode der Organogenese erhalten.
Pflanzen der Hirse Sorte K-9693 Kormowoe 1 werden in der V. Periode der Organogenese (nach Kupermann) mit l%iger wäßriger Emulsion von Bis(di-n-butyläther) der δ, δ' -Thiodivaleriansäure, Natriumsalz der δ, δ' -Sulfonyldivaleriansäure behandelt. Der Verbrauch an Präparat beträgt 6 kg/ha. Als Kontrolle dienen Pflanzen, behandelt mit einem Verdünner ohne Sterilisationsmittel. Die Prüfergebnisse sind in der Tabelle 16 angegeben. […] Periode der Organogenese erhalten.

tetraploidem Roggen = test: Field test of gametocidal activity (sterilisation of anthers), tetraploid rye; settings: Sorte Belta; V. Periode der Organogenese; 1%ige wäßrige Emulsion; 6 kg/ha
Excerpt: as §1, §2, §3, §4, §5
Pflanzen von tetraploidem Roggen Sorte Belta werden in der V. Periode der Organogenese (nach Kupermann) mit 1%iger wäßriger Emulsion von d, δ' -Thiodivaleriansäure, Natriumsalz der δ, δ' -Thiodivaleriansäure, δ, δ' -Sulfonylvaleriansäure, Natriumsalz der δ, δ' -Sulfonyldivaleriansäure, Kaliumsalz der d, δ' -Sulfonyldivaleriansäure, Bis(di-n-butyläther) der δ, δ' -Thiodivaleriansäure, Bis(2-Äthylhexyläther) der δ, δ'-Thiodivaleriansäure, 4-Karboxybutyldezylsulfid behandelt. Die Emulsion enthält 0,1 Masse% Kalziumalkylbenzolaulfonat und 0,01 Masse% Dimethylsulfoxid. Der Verbrauch an Präparat beträgt 6 kg/ha. Als Kontrolle dienen Pflanzen, behandelt mit einem Verdünner ohne Sterilisationsmittel. Die Prüfergebnisse sind in der Tabelle 11 angegeben. […] Periode der Organogese erhalten.

diploidem Roggen = test: Field test of gametocidal activity (sterilisation of anthers), diploid rye; settings: Sorte Gibrid 1861/79; V. und VI. Periode der Organogenese; 1%ige wäßrige Emulsion; 8 kg/ha
Excerpt: as §1, §2, §3, §4, §5
Pflanzen von diploidem Roggen Sorte Wosohod 2 werden in der V. Periode der Organogenese (nach Kupermann) mit 1%iger wäßriger Emulsion von Bis(di-n-butyläther) der δ, δ' -Thiodivaleriansäure, 4-Krboxybutyldezylsulfid, Natriumsalz der δ, δ' -Thiodivaleriansäure, Bis(2-äthylhexyläther) der δ, δ' -Thiodivaleriansäure, δ, δ' -Sulfonyldivaleriansäure, Natriumsalz der δ, δ'-Sulfonyldivaleriansäure, Kaliumsalz der δ, δ' -Sulfonyldivaleriansäure behandelt. Die Emulsion enthält 0,1 Masse% […] mit 12 bis 14 Kohlenstoffatomen und 0,01 Masse% Tetrahydrofuran. Der Verbrauch an Präparat beträgt 6 kg/ha. Als Kontrolle dienen Pflanzen, behandelt mit einem Verdünner ohne Sterilisationsmittel.
Pflanzen von diploidem Roggen Sorte Gibrid 1861/79 werden in der V. und VI. Periode der Organogenese (nach Kupermann) mit 1%iger wäßriger Emulsion von Bis(di-n-butyläther) der δ, δ' -Thiodivaleriansäure, δ, δ' -Thiodivaleriansäure, Natriumsalz der δ δ' -Thiodivaleriansäure, 4-Karboxybutyldezylsulfid, δ , δ' -Sulfonyldivaleriansäure, Kaliumsalz der δ, δ' -Sulfonyldivaleriansäuleriansäure, Kaliumalz der δ' -Sulfonyldivaleriansäure, Bis(2-äthylhexyläther) der δ, δ' -Thiodivaleriansäure behandelt. Die Emulsion enthält 0,1 Masse% Kalziumalkylbenzolsulfonat mit 12 bis 14 Kohlenstoffatomen und 0,01 Masse% Dimethylformamid. Der Verbrauch an Präparat beträgt 8 kg/ha. Als Kontrolle dienen Pflanzen, behandelt mit einem Verdünner ohne Sterilisationsmittel. Die Prüfergebnisse sind in der Tabelle 10 angegeben.

[1] = Sorte K-9693 Kormowoe 1, 6 kg/ha
[2] = Sorte K9009, Poltawskaja oblast, 6 kg/ha

Bis(di-n-butyläther) der δ, δ' -Thiodivaleriansäure [Beispiel 73]
Anzahl von Körnern der Rispe bei freier Bestäubung (Hirse; [1]): 122,1 | Anzahl von Körnern der Rispe im Isolator (Hirse; [1]): 0,0 | Prozentsatz der Sterilität (Hirse; [1]): 100,0% | Prozentsatz des Ansetzens von Körnern bei freier Bestäubung (Hirse; [1]): 83,2%

O=C(O)CCCCSCCCCC(=O)O [Beispiel 52, Natriumsalz der δ, δ' -Thiodivaleriansäure]
Anzahl von Körnern der Ähre bei freier Bestäubung (tetraploidem Roggen): 40,6 | Anzahl von Körnern der Ähre im Isolator (tetraploidem Roggen): 0,1 | Prozentsatz der Sterilität (tetraploidem Roggen): 99,8% | Prozentsatz des Ansetzens von Körnern bei freier Bestäubung (tetraploidem Roggen): 91,8%

O=C([O-])CCCCSCCCCC(=O)[O-].[Na+].[Na+] [Beispiel 69, Natriumsälz der δ, δ'- -Thiodivaleriansäure]
Anzahl von Körnern der Rispe bei freier Bestäubung (Hirse; [2]): 105,1 | Anzahl von Körnern der Rispe im Isolator (Hirse; [2]): 0,0 | Prozentsatz der Sterilität (Hirse; [2]): 100,0% | Prozentsatz des Ansetzens von Körnern bei freier Bestäubung (Hirse; [2]): 81,2%

O=C(O)CCCCS(=O)(=O)CCCCC(=O)O [Beispiel 66, δ, δ' -Sulfonyldivaleriansäure]
Anzahl von Körnern der Rispe bei freier Bestäubung (Hirse; Sorte Mironowskoe 94, 10 kg/ha): 336,8 | Anzahl von Körnern der Rispe im Isolator (Hirse; Sorte Mironowskoe 94, 10 kg/ha): 0,0 | Prozentsatz der Sterilität (Hirse; Sorte Mironowskoe 94, 10 kg/ha): 100,0% | Prozentsatz des Ansetzens von Körnern bei freier Bestäubung (Hirse; Sorte Mironowskoe 94, 10 kg/ha): 91,9%

CCCCCCCCCCSCCCCC(=O)O [Beispiel 65, 4-Karboxybutyldezylsulfid]
Anzahl von Körnern der Rispe bei freier Bestäubung (Hirse; Sorte Mironowskoe 94, 10 kg/ha): 323,7 | Anzahl von Körnern der Rispe im Isolator (Hirse; Sorte Mironowskoe 94, 10 kg/ha): 0,0 | Prozentsatz der Sterilität (Hirse; Sorte Mironowskoe 94, 10 kg/ha): 100,0% | Prozentsatz des Ansetzens von Körnern bei freier Bestäubung (Hirse; Sorte Mironowskoe 94, 10 kg/ha): 88,3%

CCCCOC(=O)CCCCSCCCCC(=O)OCCCC [Beispiel 56, Bis(di-n-butyläther) der δ, δ' -Thiodivaleriansäure]
Anzahl von Körnern der Ähre bei freier Bestäubung (tetraploidem Roggen): 38,2 | Anzahl von Körnern der Ähre im Isolator (tetraploidem Roggen): 0,0 | Prozentsatz der Sterilität (tetraploidem Roggen): 100,0% | Prozentsatz des Ansetzens von Körnern bei freier Bestäubung (tetraploidem Roggen): 86,7%

O=C(O)CCCCS(=O)(=O)CCCCC(=O)O [Beispiel 55, Kaliumsalz der d, δ' -Sulfonyldivaleriansäure]
Anzahl von Körnern der Ähre bei freier Bestäubung (tetraploidem Roggen): 34,0 | Anzahl von Körnern der Ähre im Isolator (tetraploidem Roggen): 0,0 | Prozentsatz der Sterilität (tetraploidem Roggen): 100,0% | Prozentsatz des Ansetzens von Körnern bei freier Bestäubung (tetraploidem Roggen): 76,9%

O=C([O-])CCCCS(=O)(=O)CCCCC(=O)[O-].[Na+].[Na+] [Beispiel 74, Natriumsalz der δ, δ' -Sulfonyldivaleriansäure]
Anzahl von Körnern der Rispe bei freier Bestäubung (Hirse; [1]): 103,5 | Anzahl von Körnern der Rispe im Isolator (Hirse; [1]): 0,0 | Prozentsatz der Sterilität (Hirse; [1]): 100,0% | Prozentsatz des Ansetzens von Körnern bei freier Bestäubung (Hirse; [1]): 70,5%

CCCCCCCCCCSCCCCC(=O)O [Beispiel 72, 4-Karboxybutyldezylsulfid]
Anzahl von Körnern der Rispe bei freier Bestäubung (Hirse; [2]): 100,7 | Anzahl von Körnern der Rispe im Isolator (Hirse; [2]): 0,0 | Prozentsatz der Sterilität (Hirse; [2]): 100,0% | Prozentsatz des Ansetzens von Körnern bei freier Bestäubung (Hirse; [2]): 77,8%

CCCCCCCCCCSCCCCC(=O)O [Beispiel 47, 4-Karboxybutyldezylsulfid]
Anzahl von Körnern der Ähre bei freier Bestäubung (diploidem Roggen): 52,8 | Anzahl von Körnern der Ähre im Isolator (diploidem Roggen): 0,0 | Prozentsatz der Sterilität (diploidem Roggen): 100,0% | Prozentsatz des Ansetzens von Körnern bei freier Bestäubung (diploidem Roggen): 84,1%

O=C(O)CCCCSCCCCC(=O)O [Beispiel 51, d, δ' -Thiodivaleriansäure]
Anzahl von Körnern der Ähre bei freier Bestäubung (tetraploidem Roggen): 32,9 | Anzahl von Körnern der Ähre im Isolator (tetraploidem Roggen): 0,3 | Prozentsatz der Sterilität (tetraploidem Roggen): 99,3% | Prozentsatz des Ansetzens von Körnern bei freier Bestäubung (tetraploidem Roggen): 74,4%

O=C(O)CCCCSCCCCC(=O)O [Beispiel 45, δ, δ' -Thiodivaleriansäure]
Anzahl von Körnern der Ähre bei freier Bestäubung (diploidem Roggen): 58,6 | Anzahl von Körnern der Ähre im Isolator (diploidem Roggen): 0,1 | Prozentsatz der Sterilität (diploidem Roggen): 99,8% | Prozentsatz des Ansetzens von Körnern bei freier Bestäubung (diploidem Roggen): 93,3%

O=C(O)CCCCS(=O)(=O)CCCCC(=O)O [Beispiel 54, Natriumsalz der δ, δ' -Sulfonyldivaleriansäure]
Anzahl von Körnern der Ähre bei freier Bestäubung (tetraploidem Roggen): 34,6 | Anzahl von Körnern der Ähre im Isolator (tetraploidem Roggen): 0,0 | Prozentsatz der Sterilität (tetraploidem Roggen): 100,0% | Prozentsatz des Ansetzens von Körnern bei freier Bestäubung (tetraploidem Roggen): 78,2%

CCCCC(CC)COC(=O)CCCCSCCCCC(=O)OCC(CC)CCCC (stereo not drawn) [Beispiel 57, Bis(2-Äthylhexyläther) der δ, δ'-Thiodivaleriansäure]
Anzahl von Körnern der Ähre bei freier Bestäubung (tetraploidem Roggen): 42,7 | Anzahl von Körnern der Ähre im Isolator (tetraploidem Roggen): 0,0 | Prozentsatz der Sterilität (tetraploidem Roggen): 100,0% | Prozentsatz des Ansetzens von Körnern bei freier Bestäubung (tetraploidem Roggen): 96,6%

CCCCCCCCCCSCCCCC(=O)O [Beispiel 58, 4-Karboxybutyldezylsulfid]
Anzahl von Körnern der Ähre bei freier Bestäubung (tetraploidem Roggen): 40,3 | Anzahl von Körnern der Ähre im Isolator (tetraploidem Roggen): 0,0 | Prozentsatz der Sterilität (tetraploidem Roggen): 100,0% | Prozentsatz des Ansetzens von Körnern bei freier Bestäubung (tetraploidem Roggen): 91,2%

O=C(O)CCCCSCCCCC(=O)O [Beispiel 46, Natriumsalz der δ δ' -Thiodivaleriansäure]
Anzahl von Körnern der Ähre bei freier Bestäubung (diploidem Roggen): 57,1 | Anzahl von Körnern der Ähre im Isolator (diploidem Roggen): 0,1 | Prozentsatz der Sterilität (diploidem Roggen): 99,8% | Prozentsatz des Ansetzens von Körnern bei freier Bestäubung (diploidem Roggen): 90,9%

CCOCCOC(=O)CCCCSCCCCC(=O)OCCOCC [Beispiel 71, Bis(2-äthylglykoläther) der d, δ' -Thiodivaleriansäure]
Anzahl von Körnern der Rispe bei freier Bestäubung (Hirse; [2]): 112,0 | Anzahl von Körnern der Rispe im Isolator (Hirse; [2]): 0,0 | Prozentsatz der Sterilität (Hirse; [2]): 100,0% | Prozentsatz des Ansetzens von Körnern bei freier Bestäubung (Hirse; [2]): 86,6%

O=C(O)CCCCSCCCCC(=O)O [Beispiel 68, δ, δ' Thiodivaleriansäure]
Anzahl von Körnern der Rispe bei freier Bestäubung (Hirse; [2]): 101,4 | Anzahl von Körnern der Rispe im Isolator (Hirse; [2]): 0,0 | Prozentsatz der Sterilität (Hirse; [2]): 100,0% | Prozentsatz des Ansetzens von Körnern bei freier Bestäubung (Hirse; [2]): 78,1%

O=C(O)CCCCS(=O)(=O)CCCCC(=O)O [Beispiel 70, δ, δ' -Sulfonyldivaleriansäure]
Anzahl von Körnern der Rispe bei freier Bestäubung (Hirse; [2]): 77,1 | Anzahl von Körnern der Rispe im Isolator (Hirse; [2]): 0,0 | Prozentsatz der Sterilität (Hirse; [2]): 100,0% | Prozentsatz des Ansetzens von Körnern bei freier Bestäubung (Hirse; [2]): 60,0%

CCCCC(CC)COC(=O)CCCCSCCCCC(=O)OCC(CC)CCCC (stereo not drawn) [Beispiel 67, Bis(2-äthylhexyläther) der δ, δ' -Thiodivaleriansäure]
Anzahl von Körnern der Rispe bei freier Bestäubung (Hirse; Sorte Mironowskoe 94, 10 kg/ha): 312,8 | Anzahl von Körnern der Rispe im Isolator (Hirse; Sorte Mironowskoe 94, 10 kg/ha): 0,0 | Prozentsatz der Sterilität (Hirse; Sorte Mironowskoe 94, 10 kg/ha): 100,0% | Prozentsatz des Ansetzens von Körnern bei freier Bestäubung (Hirse; Sorte Mironowskoe 94, 10 kg/ha): 85,3%

O=C(O)CCCCS(=O)(=O)CCCCC(=O)O [Beispiel 48, δ , δ' -Sulfonyldivaleriansäure]
Anzahl von Körnern der Ähre bei freier Bestäubung (diploidem Roggen): 54,7 | Anzahl von Körnern der Ähre im Isolator (diploidem Roggen): 0,0 | Prozentsatz der Sterilität (diploidem Roggen): 100,0% | Prozentsatz des Ansetzens von Körnern bei freier Bestäubung (diploidem Roggen): 87,1%
